Here are results for three molecules from PMC12668289 (RSC Chemical Biology, 2025).

A word on the Kd: it is the constant that tells how readily two partners part at equilibrium.

In one test the test system is Eluc. Description: Steady-state kinetics of luciferase reactions (luminometer). The class given is biochemical, Pyrearinus termitilluminans. The note with it: for Substrate inhibition: concentration range tested 0-300; for appKm: pH 8.0, 25 °C. The protocol: (§1) 1.5 Bioluminescence characterizations
(§2) Reactions of luciferases, including Photinus pyralis luciferase (Fluc), Phrixothrix hirtus luciferase (SLR), Pyrearinus termitilluminans […]
(§3) mM D-LH 2 analogues, 3 mM ATP, 6 mM MgCl2, and 10 µM luciferase in 0.2 ml of 100 mM HEPES-NaOH pH 8.0. The bioluminescence (BL) emission characteristics were recorded using a microplate reader in a BL mode (Thermo Scientific, Varioskan, LUX multimode). […]
BL of the
(§4) The reactions were initiated by mixing 25 µl of premixed solution of luciferases/D-LH 2 analogues with 125 µl of 3 mM ATP and 6 mM MgCl2 in 100 mM HEPES-NaOH (pH 8.0). The light intensity (relative light unit, RLU) during 0-300 sec was then collected to represent the overall luciferase activity which was further used for calculating kinetic parameters from the Michaelis-Menten equation. […]

For another test, the system named is SLR (HeLa). Description: Sensitivity of live reporter cell detection (LOD of cell number). The class given is cell-based, human.
Test [1] concerns stably Fluc-expressing HepG2 cells. As to the kind of experiment: Real-time BL monitoring of live cells. The class given is cell-based, human. Particulars: Fluc HepG2, 100 µM; for Time at which the highest BL signals were achieved: monitored for 3 days.
The next test concerns Pmluc-N230S. Description: Steady-state kinetics of luciferase reactions (luminometer). The class given is biochemical, Pyrocoelia miyako. Also noted: Substrate inhibition: unit not given here. The note with it: for appKm: pH 8.0, 25 °C; for Relative kcat: relative to 2a compound. How it is done:
as §1, §2, §3
BL of the
as §4

Test [2] has as its target T1, Fluc (Photinus pyralis, UniProt P08659). The description is as above. The class given is biochemical. The note with it: for Substrate inhibition: concentration range tested 0-300; for appKm: pH 8.0, 25 °C. How it is done:
as §1, §2, §3
BL of the
as §4

For test [3], the system named is HepG2 cell line stably expressing a Fluc reporter. Description: BL spectra in live HepG2 cells stably expressing Fluc. The class given is cell-based, human. Particulars: live HepG2, DMEM with 25 mM HEPES-NaOH pH 7.0, 37 °C, 100 µM. How it is done: mM purified luciferases into the reaction tube and the bioluminescence signals were monitored until it decayed to the background level.
The QY value was calculated from the measured total numbers of photon emission from the reaction of each D-LH 2 analogue with […]
1.6 Mammalian cell line culture and bioluminescence assays
Human embryotic kidney (HEK293T) cells, human hepatocyte carcinoma cancer (HepG2) cells, human cervical carcinoma (HeLa) cells, and Abelson leukemia virus-transformed cell line derived from BALB/c mice (RAW264.7) cells (American Type Culture Collection, USA) were grown in Dulbecco’s Modified Eagle Medium (DMEM) in low glucose supplemented with 10% (v/v) heat-inactivated fetal bovine serum (FBS) plus 1% (w/v) penicillin-streptomycin. Four types of cells were maintained at 37 °C with 5% CO2. For transient transfection, […]
supplemented with 10% (v/v) heat-inactivated FBS. Before transfection, the cultured medium was removed and added a fresh minimal essential medium with reduced amount of serum (opti-MEMTM) to each well. Cells were transfected by adding 0.07 pmol of pGL4.13 [luc2/SV40] as a target vector and 0.007 pmol of pRL-TK as a control vector using lipofectamineTM3000 (Thermo Fisher Scientific) in opti-MEMTM and lipofection. Cells were incubated for 5 h and then the supernatant medium was replaced by a fresh working DMEM medium.
Cells were harvested by washing with 500 μl PBS buffer (pH 7.4). The cells were detached […]
freezing-thawing process. […]
kept at -80 °C until used.
The 150 µl assay reaction was carried out in 150 µl 100 mM HEPES-NaOH (pH 8.0). The 25 µl […]
100 mM HEPES-NaOH (pH 8.0). Then, the RLU signals of each D-LH 2 and analogues were compared. […]
proteins) and a substrate cocktail reagent (3 mM ATP and 6 mM MgCl2 in 100 mM HEPES pH 8.0). The detection sensitivity of crude lysate of HEK293T expressing Fluc was determined by measuring RLU of the reaction with a luminometer with concentrations under the linearity […]
After the cells reached the highest BL intensity, the dish was recorded with a highly sensitive CCD […]

The target in test [4] is T1, Fluc. As to the kind of experiment: biochemical. The note with it: ITC; for G (free energy of binding) / H (enthalpy of binding): 25 °C; for Kd: Table S9. The class given is binding.
For the next test, the system named is Fluc (HepG2). Description: Sensitivity of live reporter cell detection (LOD of cell number). The class given is cell-based, human. The note with it: 100 µM, 30 min.
Test [5] relates to SLR-expressing HeLa cells. Description: Real-time BL monitoring of live cells.
Procedure: plasmids and Lipofectamine 3000 were then combined and incubated for 30 minutes to allow formation of DNA and lipid complexes.
The DNA-lipid complexes were added directly to each well of the empty plate. 1.5 × 10⁵ cells (HepG2 and HeLa cells) were then suspended
in 150 µL of DMEM supplemented with 10% FBS were added directly into the transfection mixture in each well. The plate was gently
agitated to ensure even distribution and incubated at 37°C in a humidified 5% CO₂ incubator. The reporter cells obtained at this stage
were ready for further investigation of their bioluminescence with D-LH2 analogues.
2c), 10% FBS and 25 mM HEPES-NaOH (pH 7.0) was added and the BL signals were monitored with F0 (no filter) and F2 (red filter, >620
nm long-pass filter) by a luminometer (ATTO, Kronos HT, WSL-1563) and while maintaining the cells with 5% CO2 at 37 °C.
The target in the next test is Fluc-ApCPP complex (Photinus pyralis, UniProt P08659). As to the kind of experiment: biochemical. The test is classed as binding. Particulars: ITC; for Kd / G (free energy of binding) / H (enthalpy of binding): 25 °C; for Kd: preformed Fluc-ApCPP complex, read-out: Dissociation constant (Kd) Fluc-ApCPP: Luciferin; for N site / G (free energy of binding) / H (enthalpy of binding): Fluc-ApCCP.
Sequence of Fluc-ApCPP complex (P08659 whole entry, one chain of several): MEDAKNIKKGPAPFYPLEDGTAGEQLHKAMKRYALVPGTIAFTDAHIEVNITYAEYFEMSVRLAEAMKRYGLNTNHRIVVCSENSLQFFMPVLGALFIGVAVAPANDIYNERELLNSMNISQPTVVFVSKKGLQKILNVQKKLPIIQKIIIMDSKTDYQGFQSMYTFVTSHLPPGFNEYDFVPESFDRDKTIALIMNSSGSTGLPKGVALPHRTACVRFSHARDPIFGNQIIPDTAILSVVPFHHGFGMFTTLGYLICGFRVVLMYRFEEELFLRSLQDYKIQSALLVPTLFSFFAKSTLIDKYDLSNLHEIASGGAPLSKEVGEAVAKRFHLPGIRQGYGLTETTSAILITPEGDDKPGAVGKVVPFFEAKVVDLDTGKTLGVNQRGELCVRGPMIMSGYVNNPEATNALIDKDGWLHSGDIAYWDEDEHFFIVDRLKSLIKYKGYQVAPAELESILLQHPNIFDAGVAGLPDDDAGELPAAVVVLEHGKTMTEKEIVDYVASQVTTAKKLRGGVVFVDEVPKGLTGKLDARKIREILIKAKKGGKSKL

The mark [6] stands for this setting: F2 (red filter, >620 nm long-pass).

Like-named read-outs stand apart in the source and are kept apart here. Where only a bound is given, the exact number is not on record here.

T1 sequence (P08659 whole entry): as the sequence (P08659 whole entry, one chain of several) above

Regarding `Cc1cc2nc(C3=N[C@@H](C(=O)O)CS3)sc2c(C)c1O` [Compound 2c, 5’,7’-di-methyl-D-luciferin], the Substrate inhibition in the test with Eluc and at Fluc [2] was > 12.5 µM in each case. Further, the appKm is reported as 3.5 µM in the test with Eluc, 2.6 µM with Pmluc-N230S (Pmluc-N230S) and 2.5 µM at Fluc [2]. The Relative kcat was 0.3 in the test on Eluc (relative to 2a compound), 48.1 in the test with Pmluc-N230S (Pmluc-N230S) and 67.8 at Fluc [2] (relative to 2a compound). For the same molecule, the “Limit of detection (LOD), cells” value is 1437 cells in the test with SLR (HeLa) (F0 (no filter)), 707 cells with SLR (HeLa) (F2 (red filter)) and 713 cells with Fluc (HepG2) (F0 (no filter)). Moreover, the “Highest signal obtained at faster rate than that of 2a” value in test [1] came to 7.3 fold. The “Time at which the highest BL signals were achieved” value in test [1] was determined as 6 h. Further, in test [3], the “BL spectrum peak in live cells” value came to 638 nm. For the same molecule, the values for the N site on Fluc [4] and on Fluc-ApCPP complex were 0.80 and 3.34, respectively. Also, the “G (free energy of binding)” value is -6.08 kcal/mol at Fluc [4] and -6.01 kcal/mol at Fluc-ApCPP complex. Further, the “H (enthalpy of binding)” value at Fluc [4] is listed as -3.20 kcal/mol; on Fluc-ApCPP complex it was -4.85 kcal/mol. Besides, the results for the Kd at Fluc [4] and at Fluc-ApCPP complex were 35.1 µM and 25.3 ± 1.1 µM, respectively. Moreover, the “Time BL signals are prolonged before signal decreasing” value in test [5] (SLR-expressing HeLa, 100 µM) is given as “up to 18 h”.
`Cc1cc2nc(C3=N[C@@H](C(=O)O)CS3)sc2cc1O` [Compound 2b, 5’-methyl-D-luciferin]: the Substrate inhibition is > 8 µM with Eluc; > 4.0 in the test with Pmluc-N230S (Pmluc-N230S, concentration range tested 0-300); > 10.0 µM at Fluc [2]. In addition, the appKm with Eluc came out at 0.7 µM; in the test with Pmluc-N230S (Pmluc-N230S) it was 1.8 µM; on Fluc [2], 3.1 µM. In addition, the “Limit of detection (LOD), cells” value in the test with SLR (HeLa) (F0 (no filter)) came to 973 cells; with SLR (HeLa) (F2 (red filter)), 826 cells; with Fluc (HepG2) (setting [6]) it was 795 cells. Further, in [1], the “Highest signal obtained at faster rate than that of 2a” value is 1.2 fold. Moreover, the “Time at which the highest BL signals were achieved” value in test [1] was 35 h. Further, the “Relative kcat (BL intensity), fold of 2a” value in the test with Pmluc-N230S (Pmluc N230S, compared to 2a) was found to be 5.2 fold. The Relative kcat with Pmluc-N230S (Pmluc-N230S) amounted to 518.5. For the same molecule, the “BL spectrum peak in live cells” value in test [3] was determined as 609 nm. Further, the N site at Fluc [4] amounted to 0.70; on Fluc-ApCPP complex it was 0.33. Further, the “G (free energy of binding)” value on Fluc [4] is -6.70 kcal/mol; on Fluc-ApCPP complex it was -7.60 kcal/mol. Moreover, the “H (enthalpy of binding)” value on Fluc [4] is -1.83 kcal/mol; at Fluc-ApCPP complex it was -4.60 kcal/mol. The Kd at Fluc [4] is 13.4 µM; on Fluc-ApCPP complex, 4 ± 0.02 µM. For the same molecule, the “Time BL signals are prolonged before signal decreasing” value in test [5] (SLR-expressing HeLa, 100 µM) was “up to 10 h”.
On to `O=C(O)[C@H]1CSC(c2nc3ccc(O)cc3s2)=N1` [Compound 2a, D-luciferin, reference compound], for which the Substrate inhibition with Eluc was > 1e+06 µM. Also, the appKm in the test with Eluc is on record as 0.1 µM; with Pmluc-N230S (Pmluc-N230S), 0.6 µM; at Fluc [2], 3.3 µM. For the same molecule, the “Limit of detection (LOD), cells” value with SLR (HeLa) (F0 (no filter)) was 1352 cells; with SLR (HeLa) (F2 (red filter)) it was 1268 cells; with Fluc (HepG2) (F0 (no filter)) it was 601 cells; with Fluc (HepG2) (setting [6]), 897 cells. Moreover, in [1], the “Time at which the highest BL signals were achieved” value came to 44 h. Also, the “BL spectrum peak in live cells” value in [3] amounted to 604 nm. Further, the N site was found to be 1.00 at Fluc [4] and 0.32 on Fluc-ApCPP complex. The “Time BL signals are prolonged before signal decreasing” value in test [5] was “up to 10 h”.
